Where “and” joins values, the source holds several entries; their conditions need not be identical. Equal entries are not always repeated. Marks after values point to notes of the source that are not given here.
Columns and labels:
[1] = test system: fibro-inflammatory activity in the liver; assay: CDI-NASH-01 clinical study, MRI cT1; assay type: in vivo, human; conditions: for Mean change cT1: baseline to week 14; for MRI cT1: change baseline to week 14
Protocol: (§1) Eligible patients included adults aged between 18 to 75 years (inclusive), with evidence of phenotype nonalcoholic steatohepatitis (NASH). […] A stable body weight (±5%) was required during the 6 months prior to screening. Exclusion criteria include but were not limited to HIV, autoimmune hepatitis, excess alcohol use, viral hepatitis, and prior or pending liver transplantation. No patients in the 350 mg study were concomitantly treated with semaglutide, while 18% of patients in the placebo group were concomitantly treated with semaglutide.
(§2) There were 21 patients in cT1 analysis and 22 for PDFF analysis. One patient obtained PDFF at End of Treatment but MRI for cT1 despite repeat was not able to quality (by 3 cuts) so no results for cT1 were obtained on that patient.
(§3) The secondary efficacy objective was the change from baseline in fibro-inflammatory activity in the liver as assessed by cT1 (corrected T1) at week 14. cT1 is obtained by multiparametric magnetic resonance imaging of the liver and is a quantitative metric for assessing a composite of liver inflammation and fibrosis, expressed in milliseconds (msec). Additional objectives were change from baseline in LFT, chemokine and cytokine levels and key biomarkers of inflammation to week 14. In particular, change in serum cK18 and K18 by M30-M65 ELISA was assessed at week 14.

hepatic fat fraction = assay: CDI-NASH-01 clinical study, MRI-PDFF; assay type: in vivo, human; conditions: for MRI PDFF: change baseline to week 14; for Mean percent change from baseline PDFF: 700 mg SC weekly (n=22), baseline to week 14
Protocol: as §1, §2
The primary efficacy objective of the study was the change from baseline in hepatic fat fraction, assessed by magnetic resonance imaging-derived proton density fat fraction (MRI-PDFF) at week 14.

CCR5 = CCR5 (Homo sapiens, UniProt P51681); conditions: CCR5+ cells; cited from earlier work
[2] = test system: NSG mice fed a high fat NASH-inducing diet; assay: Humanized NSG mice on high fat NASH-inducing diet, Oil Red O liver sections; assay type: in vivo, mouse
Protocol: 16 male were first humanized by intravenous inoculation with normal human umbilical cord blood cells. […] Mice were switched to a high fat (52%), high cholesterol (1.25%) diet. (FPC diet: fructose, palmitate, cholesterol, trans-fat; Envigo-Teklad TD.160785). […] Mice were euthanized at 16 weeks after initiation of the high fat, high cholesterol diet.
Liver sections were analyzed for indicators of NAFLD. […] Regions of interest were identified in micrographs and digitized using an Aperio AT2 slide scanner (Leica Biosystems), then analyzed using QuPath v0.2.01 imaging software. […] Percent positivity in IgG treated group was 9.751±1.789. […] Student's t test p=0.014. Steatosis was numerically scored following a semi-quantitative pathological standard.

[3] = test system: fibro-inflammatory activity in the liver; assay: CDI-NASH-01 clinical study, MRI cT1; assay type: in vivo, human; conditions: 350 mg SC weekly, all patients (n = 22), change baseline to week 14
[4] = CDI-NASH-01 clinical study, safety and tolerability; assay type: in vivo, human
Text: The secondary objective of this study was to assess the safety and tolerability of leronlimab in adult patients diagnosed with NASH compared to placebo.
(See FIG. 3 and FIG. 4.) There was no grade 3 or higher drug related treatment emergent adverse event.

[5] = test system: LFT, chemokine and cytokine levels and key biomarkers of inflammation; assay: CDI-NASH-01 clinical study, serum analysis of biomarkers; assay type: in vivo, human
Text: as §3

serum cK18 and K18 = assay: CDI-NASH-01 clinical study, M30-M65 ELISA; assay type: in vivo, human
Text: as §3

[6] = test system: NASH patients by CCR5 haplotype; assay: CDI-NASH-01 clinical study, treatment outcome by CCR5 haplotype; assay type: in vivo, human
Text: CCR5 haplotype was investigated for 5 patients. Haplotypes with very high transcription and thus high cell surface expression of CCR5 include HHE/HHE and HHG1/HHG1. High transcription alleles when combined with a null allele delta 32 or HHG2 will default to the heterozygous allele such that HHE/HHG2 and HHG1/HHG2 would also be high transcribers for CCR5.
CCR5 transcriptional activity and disease progression can be slowed or accelerated. Surface CCR5 expression level also played a part in NASH disease progression and specific CCR5 haplotypes correlated with dose and treatment outcomes.
All patients appeared to benefit from a dose that lowered RANTES (CCL5) levels to approximately zero.

CCR5-expressing cells = conditions: cited from earlier work
HIV-1 = conditions: in vitro and hu-PBL-SCID mouse model; at concentrations that do not affect CCR5 chemokine receptor activity; cited from earlier work
[7] = 350 mg SC weekly, baseline cT1 ≥ 875 (n = 14)
[8] = 350 mg SC weekly, baseline cT1 ≥ 950 (n = 8)
[9] = 350 mg, patients with baseline elevated ALT (n=8)
[10] = 700 mg group with genetic haplotypes known to over produce CCR5, post hoc analysis
[11] = 700 mg, haplotypes associated with increased CCR5 expression
[12] = 350 mg SC weekly, all patients (n = 22), change baseline to week 14
[13] = 350 mg SC weekly, baseline cT1 ≥ 875 (n = 14), change baseline to week 14
[14] = 350 mg SC weekly, baseline cT1 ≥ 950 (n = 8), change baseline to week 14
[15] = 700 mg, patients with increased CCR5 cell surface levels
[16] = placebo patients concomitantly treated with semaglutide (n = 5)
[17] = placebo patients concomitantly treated with semaglutide (n = 5), change baseline to week 14

CCR5, sequence (P51681 whole entry): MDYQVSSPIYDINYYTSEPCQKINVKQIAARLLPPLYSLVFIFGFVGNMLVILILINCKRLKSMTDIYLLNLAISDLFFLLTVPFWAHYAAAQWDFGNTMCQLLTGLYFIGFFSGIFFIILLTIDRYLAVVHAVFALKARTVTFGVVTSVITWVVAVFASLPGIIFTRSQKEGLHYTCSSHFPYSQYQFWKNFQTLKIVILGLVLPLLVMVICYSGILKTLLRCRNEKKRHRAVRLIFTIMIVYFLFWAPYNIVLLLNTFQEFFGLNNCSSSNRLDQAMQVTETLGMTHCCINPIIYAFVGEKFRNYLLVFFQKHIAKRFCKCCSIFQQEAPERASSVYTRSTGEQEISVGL

## leronlimab: humanized IgG4 monoclonal antibody that binds to CCR5; humanized version of murine antibody PA14
[1]; 350 mg SC weekly, all patients
  Mean change cT1: -24.38 ms
[1]; [7]
  MRI cT1: −42.00**
[1]; [8]
  MRI cT1: −68.86**
[1]; 350 mg subgroup with baseline cT1≥875 ms
  Mean change cT1: -42.00 ms
[1]; [9]
  cT1 change: -69 ms
[1]; 700 mg SC weekly
  Mean change cT1: -2.73 ms
[1]; 700 mg SC weekly, listed as Leronlimab
  Mean change cT1: did not reduce
[1]; [10]
  mean cT1 change: -45.4 ms
Hepatic fat fraction; 350 mg SC weekly, all patients (n = 22)
  MRI PDFF: significantly reduced
Hepatic fat fraction; [7]
  MRI PDFF: −4.37% and −4.38* %
Hepatic fat fraction; [8]
  MRI PDFF: −9.39% and −9.27* %
Hepatic fat fraction; [9]
  PDFF change: −18%
Hepatic fat fraction
  Mean percent change from baseline PDFF: +3.75%
Hepatic fat fraction; listed as Leronlimab
  Mean percent change from baseline PDFF: did not reduce
Hepatic fat fraction; [10]
  mean percent PDFF change: −27.9%
Hepatic fat fraction; [11]
  PDFF decrease: 28%
  steatosis: Improvements
CCR5
  IC50 of CCL5-induced calcium mobilization: 45 µg/mL
[2]; 2 mg i.p. twice weekly
  fatty liver development: inhibited
[2]; 2 mg i.p. twice weekly vs IgG
  presence of fat in the liver, Oil Red O stain: markedly reduced
[3]
  MRI cT1: significantly reduced
[4]; Part 1 (700 mg) and Part 2 (350 mg)
  tolerability: generally well tolerated
[4]; Part 1 and Part 2
  grade 3 or higher drug related treatment emergent adverse event: no
[4]; not associated with discontinuation
  Injection site reaction and mild diarrhea, frequency vs placebo: occurred more frequently
[5]; [12]
  Alpha-2-Mactoglobulin s: 8.96 mg/mL
  Gamma Glutamyl Transferase (GGT) s: −1.3 U/L
[5]; [13]
  Alkaline Phosphatase: −3.16 IU/L
  Apolipoprotein A1S: 9.2 mg/dL
  Aspartate Aminotransferase (AST) s: −5.5 U/L
  CCL2 (Monocyte Chemotactic Protein-1): -95.53 pg/mL
  CCL3 (Macrophage Inflammatory Protein-1 Alpha): −7.14*** pg/mL
  CCL5 (RANTES): −7.8
  CCL11 (Eosinophil Chemotactic Protein): -15.21 pg/mL
  CCL18 (Macrophage Inflammatory Protein-4): −32.1** ng/mL
  EN RAGE (Receptor Advanced Glycation End-Products): −115.50** ng/mL
  IL-1 (Interleukin 1) Beta: 0.00 pg/mL
  IL-6 (Interleukin 6): -0.44 pg/mL
  IL-8 (Interleukin 8): −12.6*** pg/mL
  IR-IRA (Interleukin 1 Receptor Antagonist): −34.79** pg/mL
  TIMP-1 (Tissue Inhibitor Metalloproteinases 1): -17.26 ng/mL
  TNF Receptor 2 (STNFR-2): −2.0*** ng/mL
  VCAM (Vascular Cell Adnhesion Molecule): −94.2*** ng/mL
[5]; [14]
  Alkaline Phosphatase: −7.25* IU/L
  Apolipoprotein A1S: 2.3 mg/dL
  Aspartate Aminotransferase (AST) s: −13.0 U/L
  CCL2 (Monocyte Chemotactic Protein-1): -179.0 pg/mL
  CCL3 (Macrophage Inflammatory Protein-1 Alpha): −8.0*** pg/mL
  CCL5 (RANTES): −25.3
  CCL11 (Eosinophil Chemotactic Protein): -16.25 pg/mL
  CCL18 (Macrophage Inflammatory Protein-4): −48.0** ng/mL
  EN RAGE (Receptor Advanced Glycation End-Products): −169.0* ng/mL
  Gamma Glutamyl Transferase (GGT) s: −6.13 U/L
  IL-1 (Interleukin 1) Beta: 0.00 pg/mL
  IL-6 (Interleukin 6): -0.30 pg/mL
  IL-8 (Interleukin 8): −4.25** pg/mL
  IR-IRA (Interleukin 1 Receptor Antagonist): -26.25 pg/mL
  TIMP-1 (Tissue Inhibitor Metalloproteinases 1): -25.3 ng/mL
  TNF Receptor 2 (STNFR-2): −2.7*** ng/mL
  VCAM (Vascular Cell Adnhesion Molecule): −81.0* ng/mL
[5]; [9]
  ALT, mean change: −29.3 U/L
[5]; 350 mg, patients with baseline elevated ALT (n=8), baseline 83.7
  ALT, mean after treatment: 54.3 U/L
[5]; 700 mg SC weekly
  CCL2 level: balanced or increased levels
  CCL3 level: balanced or increased levels
  CCL11 level: balanced or increased levels
  CCL18 level: balanced or increased levels
[5]; [11]
  Apolipoprotein A1: Improvements
  HDL: strong increase
Serum cK18 and K18; 350 mg group
  M65 ELISA (cK18 and K18), mean change baseline to week 14: −8.18 U/L
Serum cK18 and K18; 350 mg group, baseline 340.55
  M65 ELISA (cK18 and K18), mean at week 14: 332.4 U/L
Serum cK18 and K18; [11]
  CK18: statistically significant reductions
Serum cK18 and K18; [15]
  M30: statistically significant reductions
  M65: statistically significant reductions
[6]; 350 mg, haplotypes correlated with low to normal surface expression of CCR5
  treatment effect: benefited
[6]; 700 mg or 350 mg, haplotypes correlated with high surface expression of CCR5, greater at 700 mg
  treatment effect: positive effects
[6]; 700 mg, haplotypes correlated with low to normal surface expression of CCR5
  treatment effect: negative effects
CCR5-expressing cells
  CCR5 surface expression / depletion of CCR5-expressing cells: does not downregulate CCR5 surface expression or deplete CCR5-expressing cells
HIV-1
  HIV-1 entry and replication: potently inhibits

## semaglutide [Placebo + Semaglutide, reference compound]
[1]; [16]
  MRI cT1: −4.40
Hepatic fat fraction; [16]
  MRI PDFF: −1.85%
[5]; [17]
  Alanine Aminotransferase (ALT) s: −3.6 U/L
  Alpha-2-Mactoglobulin s: -11.6 mg/mL
  Apolipoprotein A1 s: -4.0 mg/dL
  Aspartate Aminotransferase (AST) s: −2.8 U/L
  CCL2 (Monocyte Chemotactic Protein-1): -6.00 pg/mL
  CCL3 (Macrophage Inflammatory Protein-1 Alpha): -1.2 pg/mL
  CCL5 (RANTES): 1.2
  CCL11 (Eosinophil Chemotactic Protein): 0.20 pg/mL
  CCL18 (Macrophage Inflammatory Protein-4): 4.80 ng/mL
  High Density Lipoprotein Cholesterol (HDL): -1.0 mg/dL
  IL-6 (Interleukin 6): 0.34 pg/mL
  IR-IRA (Interleukin 1 Receptor Antagonist): 26.6 pg/mL
  TNF Receptor 2 (STNFR-2): 0.52 ng/mL
  VCAM (Vascular Cell Adnhesion Molecule): -35.6 ng/mL
  VEGF (Vascular Endothelian Growth Factor): -11.2 pg/mL

Source: patent US20260242490A1, “METHODS OF TREATING NAFLD AND NASH” (CytoDyn Inc., priority 2022, published 2026)
